Test results reported in patent publication US6677347B2, “Sulfonamido ether substituted imidazoquinolines” (3M Innovative Properties Company, priority 2000, dated 2004).

System: tumor necrosis factor (α)
Experiment: Cytokine Induction in Human Cells: tumor necrosis factor (α) by ELISA or IGEN assay
Type: cell-based
Details: human PBMC, 18 to 24 hours incubation, lowest concentration found to induce tumor necrosis factor
Text: (§1) An in vitro human blood cell system is used to assess cytokine induction. Activity is based on the measurement of interferon and tumor necrosis factor (α) (IFN and TNF, respectively) secreted into culture media as described by Testerman et. al. In “Cytokine Induction by the Immunomodulators Imiquimod and S-27609”, Journal of Leukocyte Biology, 58, 365-372 (September, 1995).
(§2) Whole blood from healthy human donors is collected by venipuncture into EDTA vacutainer tubes. Peripheral blood mononuclear cells (PBMC) are separated from whole blood by density gradient centrifugation using Histopaque®-1077. Blood is diluted 1:1 with Dulbecco's Phosphate Buffered Saline (DPBS) or Hank's Balanced Salts Solution (HBSS). The PBMC layer is collected and washed twice with DPBS or HBSS and resuspended at 4×10^6 cells/mL in RPMI complete. The PBMC suspension is added to 48 well flat bottom sterile tissue culture plates (Costar, Cambridge, Mass. or Becton Dickinson Labware, Lincoln Park, N.J.) containing an equal volume of RPMI complete media containing test compound.
(§3) The compounds are solubilized in dimethyl sulfoxide (DMSO). The DMSO concentration should not exceed a final concentration of 1% for addition to the culture wells. The compounds are generally tested at concentrations ranging from 30-0.014 μM.
(§4) The solution of test compound is added at 60 μM to the first well containing RPMI complete and serial 3 fold dilutions are made in the wells. The PBMC suspension is then added to the wells in an equal volume, bringing the test compound concentrations to the desired range (30-0.014 μM). The final concentration of PBMC suspension is 2×10^6 cells/mL. The plates are covered with sterile plastic lids, mixed gently and then incubated for 18 to 24 hours at 37° C. in a 5% carbon dioxide atmosphere.
(§5) Following incubation the plates are centrifuged for 10 minutes at 1000 rpm (˜200×g) at 4° C. The cell-free culture supernatant is removed with a sterile polypropylene pipet and transferred to sterile polypropylene tubes. Samples are maintained at −30 to −70° C. until analysis. The samples are analyzed for interferon (α) by ELISA and for tumor necrosis factor (α) by ELISA or IGEN Assay
Tumor necrosis factor (α) (TNF) concentration is determined using ELISA kits available from Biosource International, Camarillo, Calif. Alternately, the TNF concentration can be determined by Origen® M-Series Immunoassay and read on an IGEN M-8 analyzer from IGEN International, Gaithersburg, Md. The immunoassay uses a human TNF capture and detection antibody pair from Biosource International, Camarillo, Calif. Results are expressed in pg/mL.
(§6) The table below lists the lowest concentration found to induce interferon and the lowest concentration found to induce tumor necrosis factor for each compound.
With `COCCc1nc2c(N)nc3ccccc3c2n1CCOCCN(C)S(C)(=O)=O` [Example 3, N-(2-{2-[4-amino-2-(2-methoxyethyl)-1H-imidazo[4,5-c]quinolin-1-yl]ethoxy}ethyl)-N-methylmethanesulfonamide] the minimal effective concentration was 0.12 µM. In the case of `CCCCc1nc2c(N)nc3ccccc3c2n1CCOCCNS(=O)(=O)c1cccc2ccccc12` [Example 18], the minimal effective concentration is reported as 10 µM.

System: not given
Experiment: not given
Details: not given
In the case of `Cc1nc2c(N)nc3ccccc3c2n1CCOCCN` [Example 51, 1-[2-(2-aminoethoxy)ethyl]-2-methyl-1H-imidazo[4,5-c]quinolin-4-amine], the melting point is reported as 155 to 157 °C. With `CCCCc1nc2c(N)nc3ccccc3c2n1CCOCCN1CCCS1(=O)=O` [Example 5, 2-Butyl-1-{2-[2-(1,1-dioxidoisothiazolidin-2-yl)ethoxy]ethyl}-1H-imidazo[4,5-c]quinolin-4-amine] the melting point was 152 to 154 °C. In the case of `CCOCc1nc2c(N)nc3ccccc3c2n1CCOCCNS(=O)(=O)C(C)C` [Example 58, N-(2-{2-[4-amino-2-(ethoxymethyl)-1H-imidazo[4,5-c]quinolin-1-yl]ethoxy}ethyl)propane-2-sulfonamide], the melting point is reported as 139 to 142 °C. `Cc1nc2c(N)nc3ccccc3c2n1CCOCCNS(C)(=O)=O` [Example 54, N-{2-[2-(4-amino-2-methyl-1H-imidazo[4,5-c]quinolin-1-yl)ethoxy]ethyl}methanesulfonamide] gave a melting point of 152 to 155 °C. Work on `COCCc1nc2c(N)nc3ccccc3c2n1CCOCCNS(C)(=O)=O` [Example 1, N-(2-{2-[4-amino-2-(2-methoxyethyl)-1H-imidazo[4,5-c]quinolin-1-yl]ethoxy}ethyl)methanesulfonamide] yielded a melting point of 114 to 117 °C. `COCCc1nc2c(N)nc3ccccc3c2n1CCOCCN(C)S(C)(=O)=O` [Example 3, N-(2-{2-[4-amino-2-(2-methoxyethyl)-1H-imidazo[4,5-c]quinolin-1-yl]ethoxy}ethyl)-N-methylmethanesulfonamide] gave a melting point of 145 to 146.5 °C. `COCCc1nc2c(N)nc3c(c2n1CCOCCNS(C)(=O)=O)CCCC3` [Example 2, N-(2-{2-[4-amino-2-(2-methoxyethyl)-6,7,8,9-tetrahydro-1H-imidazo[4,5-c]quinolin-1-yl]ethoxy}ethyl)methanesulfonamide] gave a melting point of 151 to 153 °C. `CCc1nc2c(N)nc3ccccc3c2n1CCOCCNS(C)(=O)=O` [Example 56, N-{2-[2-(4-amino-2-ethyl-1H-imidazo[4,5-c]quinolin-1-yl)ethoxy]ethyl}methanesulfonamide] showed a melting point of 169 to 171 °C. In the case of `CCc1nc2c(N)nc3ccccc3c2n1CCOCCN` [Example 52, 1-[2-(2-aminoethoxy)ethyl]-2-ethyl-1H-imidazo[4,5-c]quinolin-4-amine], the melting point is reported as 144 to 146 °C. With `Cc1nc2c(N)nc3ccccc3c2n1CCOCCNS(=O)(=O)C(C)C` [Example 55, N-{2-[2-(4-amino-2-methyl-1H-imidazo[4,5-c]quinolin-1-yl)ethoxy]ethyl}propane-2-sulfonamide] the melting point was 172 to 175 °C. With `Cc1nc2c(N)nc3ccccc3c2n1CCOCCN1CCCS1(=O)=O` [Example 60, 1-{2-[2-(1,1-Dioxidoisothiazolidin-2-yl)ethoxy]ethyl}-2-methyl-1H-imidazo[4,5-c]quinolin-4-amine] the melting point was 186 to 187 °C. Work on `CCOCc1nc2c(N)nc3ccccc3c2n1CCOCCNS(C)(=O)=O` [Example 57, N-(2-{2-[4-amino-2-(ethoxymethyl)-1H-imidazo[4,5-c]quinolin-1-yl]ethoxy}ethyl)methanesulfonamide] yielded a melting point of 152 to 155 °C. Molecule `COCCc1nc2c(N)nc3ccccc3c2n1CCOCCN(C)S(=O)(=O)C(C)C` [Example 59, N-(2-{2-[4-amino-2-(2-methoxyethyl)-1H-imidazo[4,5-c]quinolin-1-yl]ethoxy}ethyl)-N-methylpropane-2-sulfonamide] has a melting point of 129.7 to 130.2 °C. For `COCCc1nc2c(N)nc3c(c2n1CCOCCN(C)S(C)(=O)=O)CCCC3` [Example 4, N-(2-{2-[4-amino-2-(2-methoxyethyl)-6,7,8,9-tetrahydro-1H-imidazo[4,5-c]quinolin-1-yl]ethoxy}ethyl)-N-methylmethanesulfonamide], the melting point was 115.3 to 117.8 °C.

System: interferon (α)
Experiment: Cytokine Induction in Human Cells: interferon (α) by ELISA
Type: cell-based
Parameters: key to Lowest Effective Concentration (μM) Interferon: *: no induction was seen at any of the tested concentrations; generally the highest concentration tested was 10 or 30 μM
Details: human PBMC, 18 to 24 hours incubation, lowest concentration found to induce interferon
Text: as §1, §2, §3, §4, §5
Interferon (α) concentration is determined by ELISA using a Human Multi-Species kit from PBL Biomedical Laboratories, New Brunswick, N.J. Results are expressed in pg/mL.
as §6
`COCCc1nc2c(N)nc3ccccc3c2n1CCOCCN(C)S(C)(=O)=O` [Example 3, N-(2-{2-[4-amino-2-(2-methoxyethyl)-1H-imidazo[4,5-c]quinolin-1-yl]ethoxy}ethyl)-N-methylmethanesulfonamide] showed a minimal effective concentration of 0.01 µM. For `CCCCc1nc2c(N)nc3ccccc3c2n1CCOCCNS(=O)(=O)c1cccc2ccccc12` [Example 18], the “Lowest Effective Concentration (μM) Interferon” value was “*”.
